These results are taken from article PMC7190724, “Improved GPCR ligands from nanobody tethering” (Nature Communications, 2020).

“And” between values parts separate entries of the source, which are not always exact repeats. Equal entries are not always repeated. Where a SMILES comes first, the peptide text is derived from it. [ ]: non-standard residue; d: D form. Aib = CC(C)(N)C(=O)O

The target in one experiment is T1, PTHR1YFPΔECD (Homo sapiens, UniProt Q03431).
T1 construct: expressed in transfected cells; host or cells: HEK293 (clone GD5Y) with GloSensor cAMP reporter
T1 sequence (Q03431 with tags, fused parts or gaps limits assumed): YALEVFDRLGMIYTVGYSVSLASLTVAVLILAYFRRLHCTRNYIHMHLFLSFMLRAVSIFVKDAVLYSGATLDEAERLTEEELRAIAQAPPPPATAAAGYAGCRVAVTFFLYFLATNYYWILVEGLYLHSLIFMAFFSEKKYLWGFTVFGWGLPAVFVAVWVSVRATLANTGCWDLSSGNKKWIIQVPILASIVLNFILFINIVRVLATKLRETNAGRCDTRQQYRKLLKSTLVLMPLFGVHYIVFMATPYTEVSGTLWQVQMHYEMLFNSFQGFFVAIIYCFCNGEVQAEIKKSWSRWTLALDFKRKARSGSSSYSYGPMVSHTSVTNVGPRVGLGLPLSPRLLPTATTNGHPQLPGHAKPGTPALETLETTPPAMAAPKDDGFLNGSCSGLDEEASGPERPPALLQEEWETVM
Kind of experiment: cAMP response (GloSensor luminescence), HEK293 stably expressing PTHR1YFPΔECD (GD5Y). It counts as cell-based. The note with it: peak GloSensor luminescence; mean ± SD, ≥3 independent experiments; read-out: EC50, cAMP induction. As for the experimental part: (§1) A HEK293 cell line stably expressing β-Arrestin2-YFP (GBR24) was constructed similarly. PTHR1_6E was produced using the Q5 Site-directed mutagenesis kit (NEB) and used to prepare a stably transfected HEK293-derived cell line. Annotated sequence data for all PTHR1 constructs are found in Supplementary Fig. 19. Aligned sequences of VHHs used in this study are shown in Supplementary Fig. 20.
(§2) These assays were performed as previously described. […] Confluent monolayers of cells were pre-incubated with CO2 independent medium containing D-luciferin (0.5 mM) at 37 °C until a stable baseline level of luminescence was established (20 min). Varying concentrations of ligands were then added, and the time course of luminescence response was recorded using BioTek plate reader.
(§3) Data were processed using Microsoft Excel and GraphPad Prism 6. Data from cAMP dose–response assays were analyzed using a sigmoidal dose–response model with variable slope. Data sets were statistically compared by using Student’s t test (two-tailed) assuming unequal variances for the two sets.

The next experiment has as its target T2, PTHR1GFP (Homo sapiens, UniProt Q03431).
T2 sequence (Q03431 27-593): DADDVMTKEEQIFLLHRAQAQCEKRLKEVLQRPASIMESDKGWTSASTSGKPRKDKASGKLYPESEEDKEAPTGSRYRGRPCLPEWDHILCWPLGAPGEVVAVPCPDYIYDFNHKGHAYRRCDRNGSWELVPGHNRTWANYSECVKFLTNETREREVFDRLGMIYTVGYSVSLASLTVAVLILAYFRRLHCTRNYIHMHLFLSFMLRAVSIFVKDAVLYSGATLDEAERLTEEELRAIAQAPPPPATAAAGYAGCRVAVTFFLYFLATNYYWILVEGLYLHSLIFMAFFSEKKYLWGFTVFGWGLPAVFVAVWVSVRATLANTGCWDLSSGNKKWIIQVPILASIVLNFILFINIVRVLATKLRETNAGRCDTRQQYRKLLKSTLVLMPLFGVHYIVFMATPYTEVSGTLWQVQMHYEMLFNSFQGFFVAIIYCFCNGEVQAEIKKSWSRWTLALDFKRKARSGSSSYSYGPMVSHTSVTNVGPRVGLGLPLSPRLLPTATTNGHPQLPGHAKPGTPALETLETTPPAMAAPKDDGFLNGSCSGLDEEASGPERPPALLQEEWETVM
Kind of experiment: cAMP response (GloSensor luminescence), HEK293 stably expressing PTHR1GFP (GPG10). It counts as cell-based. The protocol:
(§4) These assays were performed as previously described. Briefly, HEK-293-derived cell lines that stably express the Glosensor cAMP reporter (Promega Corp.)[30] and PTHR1, a PTHR1 variant, or PTHR2 were seeded into white sided 96-well plates (50,000 cells/well) and grown to confluency. Confluent monolayers of cells were pre-incubated with CO2 independent medium containing D-luciferin (0.5 mM) at 37 °C until a stable baseline level of luminescence was established (20 min). Varying concentrations of ligands were then added, and the time course of luminescence response was recorded using BioTek plate reader. The maximal luminescence response (observed 12–16 min after ligand addition) was used to construct dose-response data sets (Table 1, Supplementary Fig. 6).
as §3
Supplementary Figure 1. […]
GFP variant known as pHluorin2 engrafted into the receptor(ref. 19, main text). c) HEK293 cells stably expressing PTHR1-GFP were treated with varied doses of the indicated peptides or conjugates and activation was assessed by measuring luminescence from a cAMP-activated luciferase variant. Values listed represent EC50 values (mean ± SD). Each value comes from ≥ 3 independent experiments. Further details, including the number of replicates for each measurement and the normalized maximal responses induced, are reported in Supplementary Table 1. […]
than 5% of the maximal response induced for that cell line.
Peptide or conjugate PTHR1GFP

Another experiment addresses T3, hPTHR2 (Homo sapiens, UniProt P49190).
T3 construct: expressed in transfected cells
Put plainly: cAMP response (GloSensor luminescence), HEK293 stably expressing hPTHR2. In kind it is cell-based. The note with it: for EC50: peak GloSensor luminescence, mean ± SD, n = 3-4, read-out: EC50, cAMP induction. The protocol:
as §4, §3

The target in a further experiment is T4, hPTHR1 (Homo sapiens, UniProt Q03431).
T4 construct: expressed in transfected cells; host or cells: HEK293 (clone GP2.3) with GloSensor cAMP reporter
T4 sequence (Q03431 27-593): T2 sequence (Q03431 27-593)
Kind of experiment: cAMP response (GloSensor luminescence), HEK293 stably expressing human PTHR1 (GP2.3). It counts as cell-based. The note with it: human PTHR1 cells. The protocol:
as §1, §2, §3

The next experiment deals with blood ionized calcium. Put plainly: Calcemic response in mice (blood ionized calcium). It counts as in vivo, mouse. The note with it: for iCa measurement, blood ionized calcium: individual mouse. As for the experimental part:
Fig. 5 VHH conjugation potentiates an in vivo response. a Schematic of the experiment performed in mice. b Measurement of blood ionized calcium levels in mice injected with PTH and conjugates. Data presented is from a single experiment. The double line break represents a discontinuity in the Y-axis. Mice (CD1 females, 11 weeks) were injected subcutaneously with the indicated ligand (dose = 35 nmol/kg). Blood was drawn at the indicated time points and analyzed for ionized calcium levels. Data points indicate mean ± standard error of the mean (SEM), n = 4. A two-sided t-test without corrections for multiple comparisons was used for comparisons. *p = 0.005 vs. vehicle. ^#p = 0.015 vs. vehicle. ^●p = 0.038 vs. M-PTH(1-14). °p = 0.008 vs. M-PTH(1-14). The sequence of M-PTH(1-14) used here differs from PTH(1-14) in Fig. 2 and is UVUEIQLMHQXAKW where U is Aib and X is homoarginine. Source data are provided in the Source Data File. […] Traces for the calcemic responses of individual mice is found in Supplementary Fig. 18. Source data can be found in the Source Data file.
Mice (CD1 female, age 11 weeks) were treated in accordance with the ethical guidelines adopted by Massachusetts General Hospital. […] Peptides and conjugates were administered at doses that allowed for differentiation between compounds with differing levels of in vivo activity. Statistical analyses were performed assuming Gaussian distribution of data. Mice (n = 4 per compound) were injected subcutaneously with vehicle (10 mM citric acid/150 mM NaCl/0.05% Tween-80, pH 5.0) or vehicle containing PTH or conjugate at a dose of 35 nmol/kg body weight. […] Blood was withdrawn just before injection (t = 0) or at times thereafter. Tail vein blood was collected and immediately analyzed. Blood Ca^2+ concentration was measured with a Siemens RapidLab 348 Ca2+/pH analyzer.

T3 sequence (P49190 25-550): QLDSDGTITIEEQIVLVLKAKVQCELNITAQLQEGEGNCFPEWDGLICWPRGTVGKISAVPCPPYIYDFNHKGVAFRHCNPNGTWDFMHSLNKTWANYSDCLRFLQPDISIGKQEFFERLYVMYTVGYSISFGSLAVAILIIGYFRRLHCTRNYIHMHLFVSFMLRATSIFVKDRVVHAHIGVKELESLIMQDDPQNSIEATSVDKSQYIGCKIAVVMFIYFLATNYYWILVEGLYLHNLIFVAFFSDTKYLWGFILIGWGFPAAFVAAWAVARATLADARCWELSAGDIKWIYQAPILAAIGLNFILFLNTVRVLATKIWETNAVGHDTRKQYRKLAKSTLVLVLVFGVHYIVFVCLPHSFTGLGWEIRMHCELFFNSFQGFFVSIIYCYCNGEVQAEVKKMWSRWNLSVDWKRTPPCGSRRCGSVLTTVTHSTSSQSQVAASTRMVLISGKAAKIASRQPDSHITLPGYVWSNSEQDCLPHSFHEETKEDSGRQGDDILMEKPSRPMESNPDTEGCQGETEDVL

For the molecule `CC[C@H](C)[C@H](NC(=O)[C@H](CCC(=O)O)NC(=O)C(C)(C)NC(=O)[C@@H](NC(=O)[C@H](C)N)C(C)C)C(=O)N[C@@H](CCC(N)=O)C(=O)N[C@@H](CC(C)C)C(=O)N[C@@H](CCSC)C(=O)N[C@@H](Cc1c[nH]cn1)C(=O)N[C@@H](CCC(N)=O)C(=O)N[C@@H](CCCNC(=N)N)C(=O)N[C@@H](CS)C(N)=O` [PTH(1-11)] (H-AV[Aib]EIQLMHQRC-NH2), the EC50 was 246 nM at PTHR1YFPΔECD, 79 ± 45 nM at PTHR1GFP and more than 100000 nM at hPTHR2. Further, the “response at 100 uM” value at hPTHR2 (100 uM) came out at 20%.
Turning to `CC[C@H](C)[C@H](NC(=O)[C@H](CCC(=O)O)NC(=O)[C@H](CO)NC(=O)[C@@H](NC(=O)[C@@H](N)CO)C(C)C)C(=O)N[C@@H](CCC(N)=O)C(=O)N[C@@H](CC(C)C)C(=O)N[C@@H](CCSC)C(=O)N[C@@H](Cc1c[nH]cn1)C(=O)N[C@@H](CC(N)=O)C(=O)N[C@@H](CC(C)C)C(=O)NCC(=O)N[C@@H](CCCCN)C(=O)N[C@@H](Cc1c[nH]cn1)C(=O)N[C@@H](CC(C)C)C(=O)N[C@@H](CC(N)=O)C(=O)N[C@@H](CO)C(=O)N[C@@H](CCSC)C(=O)N[C@@H](CCC(=O)O)C(=O)N[C@@H](CCCNC(=N)N)C(=O)N[C@H](C(=O)N[C@@H](CCC(=O)O)C(=O)N[C@@H](Cc1c[nH]c2ccccc12)C(=O)N[C@@H](CC(C)C)C(=O)N[C@@H](CCCNC(=N)N)C(=O)N[C@@H](CCCCN)C(=O)N[C@@H](CCCCN)C(=O)N[C@@H](CC(C)C)C(=O)N[C@@H](CCC(N)=O)C(=O)N[C@@H](CC(=O)O)C(=O)N[C@H](C(=O)N[C@@H](Cc1c[nH]cn1)C(=O)N[C@@H](CC(N)=O)C(=O)N[C@@H](Cc1ccccc1)C(=O)N[C@@H](CS)C(N)=O)C(C)C)C(C)C` [PTH(1-34)], the EC50 at PTHR1YFPΔECD is > 500 nM and 689 nM; on PTHR1GFP, 0.4 ± 0.8 nM; at hPTHR2, 1.45 ± 2.42 nM.
For the molecule “G3-PTH(1-14): PTH(1-14) analog with an N-terminal triglycine extension (SVSEIQLMHNLGKH; N-terminal triglycine extension; UniProt P01270 32-45, looked up, fragment)”, the “cAMP activity” value with hPTHR1 is “reduction in potency”.
Take “UVUEIQLMHQXAKW [M-PTH(1-14), modified PTH(1-14) analog used in mice, UVUEIQLMHQXAKW, U is Aib and X is homoarginine]”: in the experiment with blood ionized calcium (35 nmol/kg s.c., CD1 female mice, n = 4, single experiment), the “blood ionized calcium response” value is on record as “little if any activity”. Moreover, the “iCa measurement, blood ionized calcium” value with blood ionized calcium (1 h after 35 nmol/kg s.c., 1st of 4 in group (mouse # 5, 9, 13)) was 1.36 mM; in the experiment on blood ionized calcium (1 h after 35 nmol/kg s.c., 2nd of 4 in group (mouse # 6, 10, 14)) it was 1.34 mM; with blood ionized calcium (1 h after 35 nmol/kg s.c., 3rd of 4 in group (mouse # 7, 11, 15)), 1.29 mM; with blood ionized calcium (1 h after 35 nmol/kg s.c., 4th of 4 in group (mouse # 8, 12, 16)) it was 1.33 mM; in the experiment with blood ionized calcium (2 h after 35 nmol/kg s.c., 1st of 4 in group (mouse # 5, 9, 13)), 1.31 mM; in the experiment on blood ionized calcium (2 h after 35 nmol/kg s.c., 2nd of 4 in group (mouse # 6, 10, 14)), 1.32 mM. The “iCa measurement, blood ionized calcium” value with blood ionized calcium (2 h after 35 nmol/kg s.c., 3rd of 4 in group (mouse # 7, 11, 15)) is reported as 1.27 mM; with blood ionized calcium (2 h after 35 nmol/kg s.c., 4th of 4 in group (mouse # 8, 12, 16)), 1.28 mM; in the experiment with blood ionized calcium (4 h after 35 nmol/kg s.c., 1st of 4 in group (mouse # 5, 9, 13)), 1.31 mM; in the experiment on blood ionized calcium (4 h after 35 nmol/kg s.c., 2nd of 4 in group (mouse # 6, 10, 14)) it was 1.33 mM; in the experiment with blood ionized calcium (4 h after 35 nmol/kg s.c., 3rd of 4 in group (mouse # 7, 11, 15)) it was 1.29 mM; in the experiment with blood ionized calcium (4 h after 35 nmol/kg s.c., 4th of 4 in group (mouse # 8, 12, 16)), 1.29 mM. Besides, the “iCa measurement, blood ionized calcium” value in the experiment with blood ionized calcium (8 h after 35 nmol/kg s.c., 1st of 4 in group (mouse # 5, 9, 13)) is 1.33 mM; in the experiment with blood ionized calcium (8 h after 35 nmol/kg s.c., 2nd of 4 in group (mouse # 6, 10, 14)), 1.30 mM; with blood ionized calcium (8 h after 35 nmol/kg s.c., 3rd of 4 in group (mouse # 7, 11, 15)) it was 1.28 mM; in the experiment on blood ionized calcium (8 h after 35 nmol/kg s.c., 4th of 4 in group (mouse # 8, 12, 16)), 1.30 mM. The “ionized Ca, group value quoted by reviewer” value in the experiment on blood ionized calcium (2h after injection, 35 nmol/kg s.c.) was 1.29 mM.

What is called EC50 is the concentration at which the effect is half-maximal.
